From patent US10144715B2, “Piperazine derivatives as liver X receptor modulators” (priority 2014, dated 2018) come the findings set out here.

Like-named read-outs stand apart in the source and are kept apart here. Bounds are passed on as bounds.

In assay [1] the target is T1, LXR β LBD protein (Homo sapiens (Human), UniProt P55055). In words: biochemical. Type of assay: binding.
Target sequence in this assay (P55055 222-460 limits assumed): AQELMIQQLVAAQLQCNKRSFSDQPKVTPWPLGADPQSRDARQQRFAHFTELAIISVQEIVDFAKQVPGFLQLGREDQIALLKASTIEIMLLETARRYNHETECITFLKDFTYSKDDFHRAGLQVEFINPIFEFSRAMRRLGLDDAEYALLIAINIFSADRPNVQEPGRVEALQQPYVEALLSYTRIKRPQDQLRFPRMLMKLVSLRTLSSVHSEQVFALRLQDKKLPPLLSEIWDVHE
Assay [2] addresses T2, Gal4 DNA binding domain fused to the LBD of LXRα in HEK293 cells (Homo sapiens (Human), UniProt Q13133). In words: LXR luciferase transcriptional reporter gene assay, agonist mode, LXRα. Type of assay: cell-based. To be noted: for EC50: read-out: Cell LXRα EC50. (In general: A reporter such as luciferase makes a cellular process visible.)
In assay [3] the target is T3, Gal4 DNA binding domain fused to the LBD of LXRβ in HEK293 cells (Homo sapiens (Human), UniProt P55055). In words: cell-based.
T3 sequence (P55055 222-460 limits assumed): as above
Assay [4] addresses T2, Gal4 DNA binding domain fused to the LBD of LXRα in HEK293 cells. In words: LXR luciferase transcriptional reporter gene assay, antagonist mode (200 nM T0901317), LXRα. Type of assay: cell-based. To be noted: for IC50: read-out: Cell LXRα IC50.
Assay [5] deals with T3, Gal4 DNA binding domain fused to the LBD of LXRβ in HEK293 cells. In words: cell-based. It counts as cell-based.
The target of another assay is LXR α LBD protein (Homo sapiens (Human), UniProt Q13133). Description: Human LXRα coactivator recruitment FRET assay, agonist mode. To be noted: agonist mode. Type of assay: biochemical. Summed up:
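LXRα- or LXRβ-LBD at 10 nM (2×) mixed with compound in DMSO, then fluorescein-SRC2-3 peptide 200 nM and Tb-anti-GST antibody 20 nM (4×) added; 2 h at rt. Time-resolved FRET read, 100 µs delay, 200 µs window; EC50 from four-parameter fit of percent control.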

The target in assay [6] is T1, LXR β LBD protein. In words: biochemical. Type of assay: biochemical. To be noted: for EC50: read-out: FRET LXRβ EC50.
Target sequence in this assay (P55055 222-460): as the sequence (P55055 222-460 limits assumed) above
[7] abbreviates: agonist mode, read-out: Cell LXRβ EC50.
Where [8] appears, read: antagonist mode, 200 nM T0901317, HEK293 reporter gene assay.
Where [9] appears, read: antagonist mode, 200 nM T0901317, HEK293 reporter gene assay, read-out: Cell LXRβ IC50.

T2 sequence (Q13133 209-447): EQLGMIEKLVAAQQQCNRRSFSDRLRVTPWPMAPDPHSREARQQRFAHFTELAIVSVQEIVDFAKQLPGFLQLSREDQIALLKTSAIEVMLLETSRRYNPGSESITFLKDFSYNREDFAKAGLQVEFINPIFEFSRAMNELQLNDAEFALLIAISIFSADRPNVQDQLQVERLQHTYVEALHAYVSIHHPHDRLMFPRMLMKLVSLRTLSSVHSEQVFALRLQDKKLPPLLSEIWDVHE
Chain of LXR α LBD protein (Q13133 209-447): as above

Broadly, the Ki is a dissociation constant, usually derived from enzyme kinetics or from competition with a known ligand. The EC50 is the concentration needed to bring the measured effect to its halfway point. Usually IC50 stands for the concentration that gives 50% inhibition. Turning to `CS(=O)(=O)c1cc(N2CCN(C[C@H]3CC[C@@H](C(F)(F)F)CC3)[C@@H](c3ccccc3)C2)ccc1C(N)=O` (single isomer, unassigned) [17-39], the Ki on LXR β LBD protein [1] (read-out: LXRβ Binding Ki) amounted to 107 nM. Further, the “Cell LXRα efficacy” value in assay [2] is 1648 (67) %; in assay [4], 9842 (125) %. For the same compound, the EC50 was determined as 1650 nM in assay [2], 630 nM in assay [3] (setting [7]), 267 nM on LXR α LBD protein and 63 nM at LXR β LBD protein [6] (agonist mode). For the same compound, the “Cell LXRβ efficacy” value in assay [3] (agonist mode) is 26%; in assay [5] (setting [8]), 135%. Further, the IC50 in assay [4] came to 9840 nM; in assay [5] (setting [9]), 2660 nM. Moreover, the “FRET LXRα efficacy” value at LXR α LBD protein came out at 55%. The “FRET LXRβ efficacy” value on LXR β LBD protein [6] (agonist mode) was 61%.
Regarding `C[C@]1(c2ccccc2)CN(c2cccc(S(C)(=O)=O)c2)CCN1Cc1ccc(C(F)(F)F)cc1` (single isomer, unassigned) [46-21], the Ki at LXR β LBD protein [1] stood at 85 nM. In assay [2], the “Cell LXRα efficacy” value is 2026 (20) %. The EC50 in assay [2] (agonist mode) was 2030 nM; in assay [3], 541 nM; on LXR α LBD protein it was 3000 nM; on LXR β LBD protein [6] it was above 50000 nM. The “Cell LXRβ efficacy” value is listed as 541 (12) % in assay [3] (agonist mode) and 537 (75) % in assay [5] (setting [8]). Moreover, the IC50 in assay [4] (setting [8]) is above 10000 nM; in assay [5], 537 nM. For the same compound, the “FRET LXRα efficacy” value on LXR α LBD protein is recorded as 24%.
With `CC(C)[C@H]1CC[C@H](CN2CCN(c3cccc(S(C)(=O)=O)c3)C[C@@H]2c2ccccc2)CC1` (single isomer, unassigned) [48-15], in assay [2], the “Cell LXRα efficacy” value is 1658 (31) %. Besides, the EC50 amounted to 1660 nM in assay [2], 564 nM in assay [3] (setting [7]), 2310 nM at LXR α LBD protein and 197 nM at LXR β LBD protein [6] (agonist mode). Moreover, the “Cell LXRβ efficacy” value in assay [3] (agonist mode) stood at 21%; in assay [5] (setting [8]) it was 60%. Moreover, the results for the IC50 in assay [4] and in assay [5] (setting [9]) were above 10000 nM and 455 nM, respectively. The “FRET LXRα efficacy” value at LXR α LBD protein worked out at 40%. Moreover, the “FRET LXRβ efficacy” value at LXR β LBD protein [6] (agonist mode) is 32%.
Take `CS(=O)(=O)c1cccc(N2CCN(C[C@H]3CC[C@H](C(F)(F)F)CC3)[C@@H](c3ccccc3)C2)c1` (single isomer, unassigned) [48-33]: the “Cell LXRα efficacy” value in assay [2] was 1245 (49) %; in assay [4], 5224 (46) %. In addition, the EC50 in assay [2] turned out to be 1240 nM; in assay [3] (setting [7]), 466 nM; on LXR α LBD protein, 4870 nM; at LXR β LBD protein [6] (agonist mode), 375 nM. Also, the figures for the “Cell LXRβ efficacy” value in assay [3] (agonist mode) and in assay [5] (setting [8]) were 32% and 52%, respectively. The IC50 amounted to 5220 nM in assay [4] and 583 nM in assay [5] (setting [9]). Further, the “FRET LXRα efficacy” value at LXR α LBD protein worked out at 74%. The “FRET LXRβ efficacy” value on LXR β LBD protein [6] (agonist mode) amounted to 82%.
For `NS(=O)(=O)c1cccc(N2CCN(C[C@H]3CC[C@@H](C(F)(F)F)CC3)[C@@H](c3ccccc3)C2)c1` (single isomer, unassigned) [48-35], the “Cell LXRα efficacy” value in assay [2] was 351 (62) %; in assay [4], 7574 (100) %. For the same compound, the EC50 in assay [2] was 351 nM; in assay [3] (setting [7]), 120 nM; at LXR α LBD protein, 416 nM; on LXR β LBD protein [6] (agonist mode), 46 nM. Further, the “Cell LXRβ efficacy” value in assay [3] (agonist mode) is 27%; in assay [5] (setting [8]), 38%. Moreover, the IC50 in assay [4] came out at 7570 nM; in assay [5] (setting [9]), 317 nM. The “FRET LXRα efficacy” value on LXR α LBD protein amounted to 52%. For the same compound, the “FRET LXRβ efficacy” value on LXR β LBD protein [6] (agonist mode) was determined as 22%.
On to “benzyl (R)-2-isobutyl-4-(3-(methylsulfonyl)phenyl)piperazine-1-carboxylate [1-13]”, for which the results for the “Cell LXRα efficacy” value in assay [2] and in assay [4] were 2139 (16) % and 4105 (131) %, respectively. In addition, the EC50 is 2140 nM in assay [2], 265 nM in assay [3] (setting [7]), 586 nM at LXR α LBD protein and 36 nM at LXR β LBD protein [6] (agonist mode). In addition, the “Cell LXRβ efficacy” value is listed as 7% in assay [3] (agonist mode) and 132% in assay [5] (setting [8]). In addition, the half-maximal inhibitory concentration (IC50) in assay [4] was found to be 4100 nM; in assay [5] (setting [9]), 756 nM. Moreover, the “FRET LXRα efficacy” value on LXR α LBD protein was 37%. Besides, on LXR β LBD protein [6] (agonist mode), the “FRET LXRβ efficacy” value is reported as 52%.
